# Measurements from patent publication US7666901B2, “Analogs of 17-hydroxywortmannin as PI3K inhibitors” (Wyeth, priority 2004, dated 2010).
# pIC50: −log10 of the molar value. Where two headings read alike, the source gives them in different places.
# Assays:
# Human TOR = target: T1, Human TOR (Homo sapiens, UniProt P42345); experiment: Human TOR (mTOR) kinase assay, DELFIA format; assay type: biochemical
# T1 construct: FLAG
# Procedure, shortened: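 Purified FLAG-TOR (800 ng/mL) phosphorylates His6-S6K ([…]) with […] ATP in Hepes pH 7.4 buffer containing MnCl2, 2 h at room temperature. Phospho-Thr389 S6K detected by DELFIA using Europium-labelled anti-P(T389)-p70S6K antibody; enzyme inhibition calculated from signal.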
# [1] = test system: LNCaP (human prostate carcinoma); experiment: Cell proliferation (MTS) assay, LNCaP; assay type: cell-based; conditions: three days treatment
# Procedure, shortened: (§1)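 Cells plated at about 3000 per well in RPMI-1640/10% FBS were dosed with compound one day later. Viability was read by MTS conversion (absorbance 490 nm, 1–2 h) three days after treatment began. Effect is expressed as percent of vehicle-treated growth on the same plate.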
# [2] = test system: phosphor-AKT (S473) in Rat1 cells; experiment: Rat1-IGF1 assay (IGF-1 induced phospho-AKT immunoblot); assay type: cell-based, rat
# Procedure, shortened: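 After 24 h serum starvation, Rat1 cells got vehicle or varying 17-HWT concentrations for 2 hours, then IGF-1 (100 ng/mL) for 30 minutes. Lysates immunoblotted for phospho-AKT (S473) and total AKT.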
# PI3K [3] = test system: T2, PI3K; experiment: Fluorescence polarization assay for PI3K; assay type: biochemical
# T2 construct: PI3K FP IC50
# Procedure, shortened: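 PI3K was preincubated with compound at 1% DMSO final, then reacted with PIP2/ATP substrate for 30-60 min. The reaction was stopped with a detector mix giving 10 nM red probe and 70 nM GST-GRP. Fluorescence polarization (mP, Tamra filters) was read 30-90 min later and IC50 determined.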
# [4] = test system: MDA468 (human breast cancer cell); experiment: Cell proliferation (MTS) assay, MDA468; assay type: cell-based; conditions: three days treatment
# Procedure, shortened: as §1
# [5] = test system: DU145 (human prostate carcinoma/lymphocytic leukemia); experiment: Cell proliferation (MTS) assay, DU145; assay type: cell-based; conditions: three days treatment
# Procedure, shortened: as §1
# [6] = test system: MDA435 (human breast adenocarcinoma); experiment: Cell proliferation (MTS) assay, MDA435; assay type: cell-based; conditions: three days treatment
# Procedure, shortened: as §1
# C3H mammary model = conditions: cited from earlier work
# PI3K [7] = conditions: cited from earlier work
# [8] = test system: HER2/Neu-overexpressing MDA361-DYT2 breast tumor cells; experiment: Tumor cell growth assay, HKI-272 and combination, MDA361-DYT2; assay type: cell-based, human; conditions: in vitro and in vivo
# Description: Human tumor cell are all obtained from ATCC, and are cultured using standard cell culture methods. Cells are plated in 96-well culture plates at 1000 to 3000 cells per well. One day following plating, cells are treated with various doses of PI3K inhibitor Compound 4 or Compound 5 alone or with a low constant dose of MEK inhibitor 2-(2-chloro-4-iodoanilino)-N-(cycloprorylmethoxy-3,4-difluobenzamide) (1 μg/ml) or UO126 (5 μg/ml). UO126 is also known as 1,4-diamino-2,3-dicyano-1,4-bis[2-aminophenylthio]butadiene. In some experiments, cells are treated alone with various doses of the MEK inhibitor (2-(2-chloro-4-iodoanilino)-N-(cycloprorylmethoxy-3,4-difluobenzamide)), or HER2/neu inhibitor HKI-272, or mTOR inhibitor CCI-779, or with a low constant dose of Compound 4 (0.1 μg/ml). […] Three days after drug treatment, viable cell densities are determined by metabolic conversion (by viable cells) of the dye MTS, an established cell proliferation assay. […] The MTS assay results are read in a 96-well plate reader by measuring absorbance at 490 nm. The effect of each treatment is calculated as percent of control growth relative to the vehicle DMSO-treated cells grown in the same culture plate. […]
# [9] = test system: phosphorylated Her2/Neu, ERK and AKT pathway markers in MDA361-DYT2; experiment: Western blot analysis of pathway markers, MDA361-DYT2; assay type: cell-based, human; conditions: 0.1 μg/ml
# Description: Cells are plated in 6-well culture plates. 24 hr later, cells are treated with indicated single agents or combined agents for 16 hr in full growth media. Protein lysates are prepared for Western blot analysis as previously described in Yu, K., et al., Endocr. Relat. Cancer. 2001 September :8(3) 249-58.
smiles,measurement,setting,value
"COC[C@H]1OC(=O)c2coc3c2[C@@]1(C)C1=C(C3=O)[C@@H]2CC[C@H](O)[C@@]2(C)C[C@H]1OC(C)=O [Compound 17-OH-Wort, 17β-Hydroxywortmannin, reference compound]",TOR IC50,Human TOR; Table 1,0.076 µg/mL
same,TOR IC50,Human TOR; Table 2,0.059 µg/mL
same,LNCaP IC50,[1]; Table 1,1 µg/mL
same,LNCaP IC50,[1]; Table 2,0.3 µg/mL
same,Rat1-IGF1 IC50,[2]; Table 1,<0.01 µg/mL
same,Rat1-IGF1 IC50,[2]; Table 2,<0.01 µg/mL
same,PI3K FP IC50,PI3K [3]; Table 1,0.0034 µg/mL
same,pIC50,PI3K [3]; Table 2,8.70
same,MDA468 IC50,[4]; Table 1,2.3 µg/mL
same,MDA468 IC50,[4]; Table 2,3 µg/mL
same,DU145 IC50,[5]; Table 1,15 µg/mL
same,DU145 IC50,[5]; Table 2,13 µg/mL
same,MDA435 IC50,[6]; Table 1,>15 µg/mL
same,MDA435 IC50,[6]; Table 2,20 µg/mL
same,toxicity,C3H mammary model; dose of 1.0 mg/kg,toxicity
same,antitumor activity,C3H mammary model; dose of 0.5 (mg/kg),no inhibition
same,increase in activity relative to wortmannin,"PI3K [7]; PI3K, literature",10 fold
same,pIC50,PI3K [7]; literature value,9.30
"CCOc1cc2ncc(C#N)c(Nc3ccc(OCc4ccccn4)c(Cl)c3)c2cc1NC(=O)/C=C/CN(C)C [HKI-272, (E)-N-{4-[3-chloro-4-(2-pyridinylmethoxy)anilino]-3-cyano-7-ethoxy-6-quinolinyl}-4-(dimethylamino)-2-butenamide]",sensitivity of MDA361-DYT2 to single agent,[8],resistant
same,effect on AKT pathway markers,[9],little effect
same,phosphorylated forms of Her2/Neu and ERK,[9],completely inhibited
